Measurements from patent publication US7858647B2, “N-[1,3,4]-thiadiazol-2-yl-benzene sulfonamides, pharmaceutical compositions thereof and methods for their therapeutic use” (Sanofi-Aventis, priority 2005, dated 2010).

target: T1, human PPARgamma (Homo sapiens, UniProt P37231); assay: Cellular PPARgamma assay (luciferase reporter, transiently transfected HEK cells); type: cell-based; conditions: GAL4-humanPPARgammaLBD
T1 construct: amino acids I152-Y475; expressed in transfected cells; host or cells: HEK cells (transient transfection of pcDNA3-GAL4-humanPPARgammaLBD)
T1 sequence (P37231 182-477 isoform P37231-2 limits assumed): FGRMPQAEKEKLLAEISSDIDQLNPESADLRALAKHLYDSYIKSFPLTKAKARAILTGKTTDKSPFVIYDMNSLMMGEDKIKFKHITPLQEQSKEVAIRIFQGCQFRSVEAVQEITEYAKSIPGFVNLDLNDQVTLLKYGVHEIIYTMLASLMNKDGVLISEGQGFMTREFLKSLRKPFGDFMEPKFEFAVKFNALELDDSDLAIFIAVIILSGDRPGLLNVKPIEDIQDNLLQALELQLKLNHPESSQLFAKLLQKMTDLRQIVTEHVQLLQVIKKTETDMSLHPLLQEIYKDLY
Excerpt: A transient transfection system is employed to determine the cellular PPARgamma activity of PPAR agonists. It is based on the use of a luciferase reporter plasmid (pGL3basic-5×GAL4-TK) and of a PPARgamma expression plasmid (pcDNA3-GAL4-humanPPARgammaLBD). Both plasmids are transiently transfected into human embryonic kidney cells (HEK cells). There is then expression in these cells of the fusion protein GAL4-humanPPARgammaLBD which binds to the GAL4 binding sites of the reporter plasmid. In the presence of a PPARgamma-active ligand, the activated fusion protein GAL4-humanPPARgammaLBD induces expression of the luciferase reporter gene, which can be detected in the form of a chemiluminescence signal after addition of a luciferase substrate. As a difference from the stably transfected PPARalpha reporter cell line, in the cellular PPARgamma assay the two components (luciferase reporter plasmid and PPARgamma expression plasmid) are transiently transfected into HEK cells because stable and permanent expression of the PPARgamma fusion protein is cytotoxic.
The luciferase reporter plasmid pGL3basic-5×GAL4-TK is based on the vector pGL3basic from Promega. The reporter plasmid is prepared by cloning five binding sites of the yeast transcription factor GAL4 (each binding site with the sequence 5′-CTCGGAGGACAGTACTCCG-3′), together with a 160 bp-long thymidine kinase promoter section (Genbank Accession #AF027128) 5′-upstream into pGL3basic. 3′-downstream of the thymidine kinase promoter is the complete luciferase gene from Photinus pyralis (Genbank Accession #M15077) which is already a constituent of the plasmid pGL3basic used. The cloning and sequencing of the reporter plasmid pGL3basic-5×GAL4-TK took place in analogy to the description in Sambrook J. et. al. (Molecular cloning, Cold Spring Harbor Laboratory Press, 1989).
The PPARgamma expression plasmid pcDNA3-GAL4-humanPPARgammaLBD was prepared by first cloning the cDNA coding for amino acids 1-147 of the yeast transcription factor GAL4 (Genbank Accession #P04386) into the plasmid pcDNA3 (from Invitrogen) 3′-downstream of the cytomegalovirus promoter. Subsequently, the cDNA of the ligand-binding domain (LBD) of the human PPARgamma receptor (amino acids I152-Y475; Accession #g1480099) 3′-downstream of the GAL4 DNA binding domain. Cloning and sequencing of the PPARgamma expression plasmid pcDNA3-GAL4-humanPPARgammaLBD again took place in analogy to the description in Sambrook J. et. al. (Molecular cloning, Cold Spring Harbor Laboratory Press, 1989). Besides the luciferase reporter plasmid pGL3basic-5×GAL4-TK and the PPARgamma expression plasmid pcDNA3-GAL4-humanPPARgammaLBD, also used for the cellular PPARgamma assay are the reference plasmid pRL-CMV (from Promega) and the plasmid pBluescript SK(+) from Stratagene. All four plasmids were prepared using a plasmid preparation kit from Qiagen, which ensured a plasmid quality with a minimal endotoxin content, before transfection into HEK cells.
The activity of PPARgamma agonists is determined in a 4-day assay which is described below. Before the transfection, HEK cells are cultivated in DMEM (#41965-039, Invitrogen) which is mixed with the following additions: 10% FCS (#16000-044, Invitrogen), 1% penicillin-streptomycin solution (#15140-122, Invitrogen) and 2 mM L-glutamine (#25030-024, Invitrogen).
Firstly, solution A, a transfection mixture which contains all four plasmids previously described in addition to DMEM, is prepared. The following amounts are used to make up 3 ml of solution A for each 96 well microtiter plate for an assay: 2622 μl of antibiotic- and serum-free DMEM (#41965-039, Invitrogen), 100 μl of reference plasmid pRL-CMV (1 ng/μl), 100 μl of luciferase reporter plasmid pGL3basic-5×GAL4-TK (10 ng/μl), 100 μl of PPARgamma expression plasmid pcDNA3-GAL4-humanPPARgammaLBD (100 ng/μl) and 78 μl of plasmid pBluescript SK(+) (500 ng/μl). […]

Compared with CCOc1cc(C(F)(F)F)ccc1C(=O)NCC(C)c1ccc(S(=O)(=O)Nc2nnc(C(C)C)s2)cc1 (racemic) [Example 43, 2-Ethoxy-N-{2-[4-(5-isopropyl-[1,3,4]thiadiazol-2-ylsulfamoyl)-phenyl]-propyl}-4-trifluoromethyl-benzamide], CCOc1cc(C(F)(F)F)ccc1C(=O)NCC(CC)c1ccc(S(=O)(=O)Nc2nnc(C(C)C)s2)cc1 (single isomer, unassigned) [Example 44a] is 3-fold lower in EC50: 90 nM for the first, 30 nM for the second. The second is the more potent here.

First: CCOc1cc(C(F)(F)F)ccc1C(=O)NCC(C)c1ccc(S(=O)(=O)Nc2nnc(C(C)C)s2)cc1 (single isomer, unassigned) [Example 43a]
Second: CCOc1cc(C(F)(F)F)ccc1C(=O)NCC(CC)c1ccc(S(=O)(=O)Nc2nnc(C(C)C)s2)cc1 (single isomer, unassigned) [Example 44b]
The EC50 of the first is 7-fold higher: 70 nM for the first, 10 nM for the second.

Compared with CCOc1cc(C(F)(F)F)ccc1C(=O)NCC(C)c1ccc(S(=O)(=O)Nc2nnc(C(C)C)s2)cc1 (single isomer, unassigned) [Example 43b], COc1cc(C(F)(F)F)ccc1C(=O)NCCc1ccc(S(=O)(=O)Nc2nnc(C(C)C)s2)cc1 [Example 1, N-{2-[4-(5-Isopropyl-[1,3,4]thiadiazol-2-ylsulfamoyl)-phenyl]-ethyl}-2-methoxy-4-trifluoromethyl-benzamide] is 5.4-fold higher in EC50: 70 nM for the first, 380 nM for the second.

Compared with COc1ccc(C(C)(C)C)cc1C(=O)NCCc1ccc(S(=O)(=O)Nc2nnc(C(C)C)s2)cc1 [Example 2, 5-tert-Butyl-N-{2-[4-(5-isopropyl-[1,3,4]thiadiazol-2-ylsulfamoyl)-phenyl]-ethyl}-2-methoxy-benzamide], COc1ccc(C(=O)NCCc2ccc(S(=O)(=O)Nc3nnc(C(C)C)s3)cc2)c(OC)n1 [Example 5, N-{2-[4-(5-Isopropyl-[1,3,4]thiadiazol-2-ylsulfamoyl)-phenyl]-ethyl}-2,6-dimethoxy-nicotinamide] is 6.2-fold higher in EC50: 180 nM for the first, 1110 nM for the second. The first is the more potent here.

CC(C)c1nnc(NS(=O)(=O)c2ccc(CNC(=O)c3ccc(C(F)(F)F)cc3)cc2)s1 [Example 24, N-[4-(5-Isopropyl-[1,3,4]thiadiazol-2-ylsulfamoyl)-benzyl]-4-trifluoromethyl-benzamide] and Cc1cc(Br)c(C(=O)NCCc2ccc(S(=O)(=O)Nc3nnc(C(C)C)s3)cc2)s1 [Example 47, 3-Bromo-5-methyl-thiophene-2-carboxylic acid {2-[4-(5-isopropyl-[1,3,4]thiadiazol-2-ylsulfamoyl)-phenyl]-ethyl}-amide] are within 1.5-fold of each other in EC50: 1530 nM for the first, 1870 nM for the second.

Compared with Cc1ccc(Cl)cc1C(=O)NCCc1ccc(S(=O)(=O)Nc2nnc(-c3ccccc3)s2)cc1 [Example 32, 5-Chloro-2-methyl-N-{2-[4-(5-phenyl-[1,3,4]thiadiazol-2-ylsulfamoyl)-phenyl]-ethyl}-benzamide], CC(C)(C)c1nnc(NS(=O)(=O)c2ccc(CCNC(=O)c3cc(Cl)ccc3Cl)cc2)s1 [Example 35, N-{2-[4-(5-tert-Butyl-[1,3,4]thiadiazol-2-ylsulfamoyl)-phenyl]-ethyl}-2,5-dichloro-benzamide] is 18-fold lower in EC50: 4870 nM for the first, 270 nM for the second.
